Assay results reported in patent US8470861B2, “Mitochondria-targeted antioxidant prodrugs and methods of use” (University of Rochester, priority 2005, dated 2013).

Key:
[1] = cited from earlier work
[2] = system: isolated rat liver mitochondria (mitochondrial β-oxidation); test: Mitochondrial biotransformation of alkanoic-acid-based prodrugs; conditions: for biotransformation / substrate quality for β-oxidation (in words): isolated rat liver mitochondria; for effect of added carnitine on biotransformation: presence vs. absence of added carnitine
From the text: Mitochondrial Biotransformation of Alkanoic-Acid-Based Prodrugs. Rat liver mitochondria were isolated from livers freshly collected from adult male Sprague-Dawley rats (190-225 g) and were used as soon as possible after isolation (Nadtochiy, et al. (2007) J. Mol. Cell. Cardiol. 42:812; Hoffman et al. (2007) Am. J. Physiol. 292:H101). Livers were removed immediately after CO2 euthanasia of the animal, minced, and homogenized with a glass Dounce homogenizer with loose-fitting pestle in liver mitochondria isolation medium that contained 0.25 M sucrose, 2.0 mM HEPES, 1.0 mM EGTA (pH 7.4) at 4° C. The homogenate was centrifuged once at 1000×g for 3 minutes at 4° C. to remove cellular debris. After removal of visible surface fat, the resulting supernatant was centrifuged at 10,000×g for 10 minutes at 4° C. The supernatant was discarded after removing visible surface fat, and the pellet was suspended in ice-cold liver mitochondria isolation medium and centrifuged again at 10,000×g for 10 minutes at 4° C. The mitochondrial pellet thus obtained was suspended in Ca^2+-depletion buffer (1 mM EGTA, 10 mM NaCl, 5 mM succinate, 195 mM mannitol, 25 mM sucrose, 40 mM HEPES, pH 7.2) at room temperature) and incubated with gentle stirring first at room temperature for 10 minutes and then in an ice bath for 5 minutes. Ca^2+-Depletion buffer serves to chelate calcium, activate mitochondrial respiration, and activate the Na^+/Ca^2+ exchanger. The mitochondrial suspension was then centrifuged at 10,000×g for 10 minutes at 4° C., and the pellet was suspended in liver swelling buffer that contained 195 mM mannitol, 25 mM sucrose, 40 mM HEPES (pH 7.2) at 4° C.; liver swelling buffer allows for ionic/osmotic equilibrium through the remainder of the preparation. The suspension was centrifuged at 10,000×g for 10 minutes at 4° C., followed by the removal of light mitochondria and a final centrifugation at 10,000×g for 10 minutes at 4° C. The mitochondrial pellet was suspended in liver swelling buffer at 4° C. Protein concentrations were determined with the Lowry reagent.^56
The quality of mitochondrial preparations was determined by estimating the respiration control ratio (RCR, i.e., the ratio of state 3 vs. state 4 respiration rates) with a Clark-type oxygen electrode (Oxygraph, Hansatech Instruments, Norfolk, England). The incubation mixtures contained 120 mM KCl, 25 mM sucrose, 5 mM MgCl2, 5 mM KH2PO4, 1 mM EGTA, 10 mM HEPES, 10 mM succinate, 2.5 mg/mL fat-free bovine serum albumin, 0.5-0.8 mg/mL mitochondrial protein, 5 μM rotenone, and 100 μM ADP (pH 7.4) and were incubated at 37° C.
Reaction mixtures were prepared in disposable glass culture tubes and contained 20 mM HEPES, 1 mM EGTA, 100 mM KCl, 5 mM KH2PO4, 10 mM MgCl2, 25 mM sucrose, 2 mM L-carnitine (if added), 5 mM ATP, 10 mg/mL bovine serum albumin, 1.4 mM dithiothreitol, 0.13 mM CoA, and 1 mM substrate (pH 7.4). Reaction mixtures were incubated at 37° C. with gentle stirring. Mitochondrial protein (approximately 5 mg/mL) was added, and the samples were incubated for 5 minutes with gentle mixing, which was maintained during the incubation period, to keep the homogenate suspended. After 5 minutes of incubation, the substrates were added. The substrates were dissolved in methanol and added to the reaction mixtures to a final concentration of 1 mM, unless otherwise stated; the final methanol concentration was ≦0.5%. ω-(1-Methyl-1H-imidazol-2-ylthio)alkanoic acids 28a and 28b were dissolved in distilled water and added to the reaction mixtures to a final concentration of 1 mM. Samples were incubated at 37° C. for 30 minutes with constant gentle mixing, and samples were collected for analysis at t=0, 10, 20, and 30 minutes.
Phenolic metabolite formation, i.e., phenol, 2-methylphenol, 2,6-dimethylphenol, 3,5-dimethylphenol, and 2,6-diisopropylphenol, from ω-(phenoxy)alkanoic acids, was quantified by HPLC analysis.

[3] = system: isolated rat cardiomyocytes; test: Cytoprotective effects in cardiomyocytes, hypoxia-reoxygenation protocol (Trypan Blue exclusion); type: cell-based; conditions: for cytoprotective effect in presence of etomoxir: compound 1 μM + etomoxir 20 μM; for cytoprotection: compounds 1 μM, etomoxir 20 μM
Procedure: Upper panel: Alkanoic acids 28a and 28b (1 μM), methimazole (1 μM), and etomoxir (20 μM) were incubated with cardiomyocytes in a hypoxia-reoxygenation protocol. CON, control; HR, hypoxia-reoxygenation; Eto, etomoxir. Statistical analysis (one-way ANOVA, n=3): CON vs. HR, p<0.05; HR vs. HR+28a, p<0.05; CON vs. HR+28a, NS; HR+28a vs. HR+28a+Eto, p<0.05; HR vs. HR+28b, p<0.05; HR+28b vs. HR+28b+Eto, p<0.05; HR vs. Methimazole, NS. Lower panel: Alkanoic acids 25c and 30a (1 μM), 2,6-dimethylphenol (1 μM), and etomoxir (20 μM) were incubated with cardiomyocytes in a hypoxia-reoxygenation protocol. CON, control; HR, hypoxia-reoxygenation; Eto, etoximir. Statistical analysis (one-way ANOVA, n=3): CON vs. HR, p<0.05; HR vs. HR+25c, p<0.05; CON vs. HR+25c, p<0.05; HR+25c vs. HR+25c+Eto, p<0.05; HR vs. HR+30a, p<0.05; HR+30a vs. HR+30a+Eto, p<0.05; HR vs. 2,6-Dimethylphenol, NS.
Primary ventricular cardiomyocytes were isolated from adult rats and viability was assessed […]. All cells were used within 1 hour of isolation and were 80-85% viable and rod-shaped prior to the experiments. Cell viability was quantified with the Trypan Blue exclusion test. The cells were subjected to a hypoxia-reoxygenation protocol designed to simulate cardiac ischemia-reperfusion injury.

IMR90 cells = conditions: cited from earlier work
[4] = 5 mg/kg daily for two weeks in feed, cited from earlier work

## Cc1c(S)ncn1C [1,5-dimethyl-4-mercaptoimidazole]
[1]
  pKa of the thiol group: 2.3

## Cc1cccc(C)c1O/C=C\C(=O)O [(Z)-3-(2,6-dimethylphenoxy)acrylic acid]
[2]
  biotransformation / substrate quality for β-oxidation (in words): no biotransformation

## O=C(O)CCOc1ccccc1 [Compound 25a, 3-(Phenoxy)propanoic acid]
[2]
  effect of added carnitine on biotransformation: no significant difference

## Cc1cccc(C)c1OCCC(=O)O [Compound 25c, 3-(2,6-Dimethylphenoxy)propanoic acid]
[2]
  biotransformation / substrate quality for β-oxidation (in words): poor substrates
[3]
  cytoprotective effect in presence of etomoxir: blocked by etomoxir
  cytoprotection: cytoprotective

## Cc1cccc(C)c1OCCCCC(=O)O [Compound 26c, 5-(2,6-Dimethylphenoxy)pentanoic acid]
[2]
  biotransformation / substrate quality for β-oxidation (in words): poor substrates

## Cn1ccnc1SCCC(=O)O [Compound 28a, 3-(1-methyl-1H-imidazol-2-ylthio)propanoic acid]
[3]
  cytoprotective effect in presence of etomoxir: blocked by etomoxir
  cytoprotection: significant cytoprotection

## Cn1ccnc1SCCCCC(=O)O [Compound 28b, 5-(1-Methyl-1H-imidazol-2-ylthio)pentanoic acid]
[3]
  cytoprotective effect in presence of etomoxir: blocked by etomoxir
  cytoprotection: significant cytoprotection

## Cc1cccc(C)c1OCSCCC(=O)O [Compound 29, 3-[(2,6-Dimethylphenoxy)methylthio]propanoic acid]
[2]
  biotransformation / substrate quality for β-oxidation (in words): much better substrate
  effect of added carnitine on biotransformation: no significant difference

## Cc1cccc(C)c1O/C=C/C(=O)O [Compound 30a, (E)-3-(2,6-dimethylphenoxy)acrylic acid]
[2]; 30a vs. 25c
  rate of biotransformation relative to saturated analog 25c: approximately 20 fold
[3]
  cytoprotective effect in presence of etomoxir: blocked by etomoxir
  cytoprotection: cytoprotective

## CC(C)c1cccc(C(C)C)c1O/C=C/C(=O)O [Compound 30b, (E)-3-(2,6-diisopropylphenoxy)acrylic acid]
[2]
  biotransformation / substrate quality for β-oxidation (in words): No quantifiable biotransformation

## ONCc1ccccc1 [N-benzylhydroxylamine]
IMR90 cells
  concentration that delays senescence (as low as): 10 µM

## CNO [N-methylhydroxylamine]
IMR90 cells
  concentration that delays senescence (as low as): 10 µM

## CC(C)(C)NO [N-tert-butylhydroxylamine]
IMR90 cells
  concentration that delays senescence (as low as): 10 µM
[4]; 8 Gy whole-body irradiation
  radiation sensitivity: decreased the radiation sensitivity
[4]
  compound-associated toxicity: no compound-associated toxicity was observed

## CCOC(=O)[C@@]1(CCCCCCOc2ccc(Cl)cc2)CO1 [etomoxir, reference compound]
[3]
  cytoprotection: no cytoprotective effect

## Cn1ccnc1S [methimazole, 2-Mercapto-1-methylimidazole, reference compound]
[3]
  cytoprotection: failed to provide cytoprotection
